Test results published in patent US7473790B2 (Pfizer Inc., priority 2003, dated 2009).

Each compound was assayed against T1, HCV polymerase (Hepatitis C virus genotype 1b, UniProt P26663) (assay: HCV polymerase primer/template-directed transcription assay (32P-GTP incorporation, filter binding)). Details: @ 50 uM compound; given where IC50 was impractical to calculate; read-out: percent inhibition.
T1 construct: 2.5 pmoles (0.15 μg) HCV polymerase protein in a final volume of 75 μL
T1 sequence (P26663 2420-3010): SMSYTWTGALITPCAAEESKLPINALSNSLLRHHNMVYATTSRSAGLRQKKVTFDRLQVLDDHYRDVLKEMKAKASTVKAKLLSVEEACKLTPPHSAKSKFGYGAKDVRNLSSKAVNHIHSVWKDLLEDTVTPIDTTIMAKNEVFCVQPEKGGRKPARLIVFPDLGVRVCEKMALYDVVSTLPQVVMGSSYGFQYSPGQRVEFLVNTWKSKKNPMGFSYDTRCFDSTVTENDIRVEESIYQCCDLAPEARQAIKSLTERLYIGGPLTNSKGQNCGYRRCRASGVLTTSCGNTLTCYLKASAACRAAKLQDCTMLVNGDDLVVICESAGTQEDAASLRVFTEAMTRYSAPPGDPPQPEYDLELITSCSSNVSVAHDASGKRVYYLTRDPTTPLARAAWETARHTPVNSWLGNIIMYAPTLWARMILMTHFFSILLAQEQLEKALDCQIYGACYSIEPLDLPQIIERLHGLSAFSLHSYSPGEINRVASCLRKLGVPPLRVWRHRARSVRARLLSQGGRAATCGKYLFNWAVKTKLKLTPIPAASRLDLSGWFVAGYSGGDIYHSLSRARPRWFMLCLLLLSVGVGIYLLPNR
Assay type: biochemical
Procedure, shortened: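 Recombinant genotype 1b polymerase (30 nM) extended biotin-dG12 primer on poly(rC)300 template with 1 μM GTP plus α-32P-GTP, pH 7.2, 10 mM MgCl2, 30 min at 30° C, 1% DMSO final. Products captured on DE filters and counted. IC50 fitted from triplicate cpm, with a tight-binding correction applied below 200 nM.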
`Cc1cc(C)n2nc(CC3=C(O)CC(CCC(=O)NC4CCN(C(=O)OC(C)(C)C)CC4)(C4CCCC4)OC3=O)nc2n1` (centres unmarked) [B(109), 4-{3-[2-Cyclopentyl-5-(5,7-dimethyl-[1,2,4]triazolo[1,5-a]pyrimidin-2-ylmethyl)-4-hydroxy-6-oxo-3,6-dihydro-2H-pyran-2-yl]-propionylamino}-piperidine-1-carboxylic acid tert-butyl ester] was tested, and the inhibition at 50 µM was 23%.

Same assay, conditions: recombinant HCV polymerase; 30 minutes at 30° C.; concentration giving 50% inhibition of polymerase-directed transcription; read-out: IC50
`CCOc1ccc(CCC2(C3CCCC3)CC(O)=C(Cc3nc4nc(C)cc(C)n4n3)C(=O)O2)cc1CC` (centres unmarked) [B(99), 6-Cyclopentyl-3-(5,7-dimethyl-[1,2,4]triazolo[1,5-a]pyrimidin-2-ylmethyl)-6-[2-(4-ethoxy-3-ethyl-phenyl)-ethyl]-4-hydroxy-5,6-dihydro-pyran-2-one] gave an IC50 of 350 nM.
Work on `CCc1cc(CCC2(C3CCCC3)CC(O)=C(Cc3nc4nc(C)cc(C)n4n3)C(=O)O2)cc(Cl)c1O` (centres unmarked) [B(100), 6-[2-(3-Chloro-5-ethyl-4-hydroxy-phenyl)-ethyl]-6-cyclopentyl-3-(5,7-dimethyl-[1,2,4]triazolo[1,5-a]pyrimidin-2-ylmethyl)-4-hydroxy-5,6-dihydro-pyran-2-one] yielded an IC50 of 3 nM.
`CCc1cc(CCC2(C3CCCC3)CC(=O)CC(=O)O2)cc(Cl)c1O` (centres unmarked) [B(101), 6-[2-(3-Chloro-5-ethyl-4-hydroxy-phenyl)-ethyl]-6-cyclopentyl-dihydro-pyran-2,4-dione] showed an IC50 of 610 nM.
Work on `CCc1cc(CCC2(C3CCCC3)CC(O)=C(Cc3nc4nc(C)cc(C)n4n3)C(=O)O2)ccc1OC(C)C` (centres unmarked) [B(102), 6-Cyclopentyl-3-(5,7-dimethyl-[1,2,4]triazolo[1,5-a]pyrimidin-2-ylmethyl)-6-[2-(3-ethyl-4-isopropoxy-phenyl)-ethyl]-4-hydroxy-5,6-dihydro-pyran-2-one] yielded an IC50 of 500 nM.
With `COc1ccc(CCC2(C3CCCC3)CC(O)=C(Cc3nc4nc(C)cc(C)n4n3)C(=O)O2)c(F)c1` (centres unmarked) [B(103), 6-Cyclopentyl-3-(5,7-dimethyl-[1,2,4]triazolo[1,5-a]pyrimidin-2-ylmethyl)-6-[2-(2-fluoro-4-methoxy-phenyl)-ethyl]-4-hydroxy-5,6-dihydro-pyran-2-one] the IC50 was 107 nM.
In the case of `CCc1cc(CCC2(C3CCCC3)CC(O)=C(Cc3nc4nc(C)cc(C)n4n3)C(=O)O2)ccc1OCCO` (centres unmarked) [B(104), 6-Cyclopentyl-3-(5,7-dimethyl-[1,2,4]triazolo[1,5-a]pyrimidin-2-ylmethyl)-6-{2-[3-ethyl-4-(2-hydroxy-ethoxy)-phenyl]-ethyl}-4-hydroxy-5,6-dihydro-pyran-2-one], the IC50 is reported as 3 nM.
`Cc1cc(C)n2nc(CC3=C(O)CC(CCc4ccc(O)c(F)c4)(C4CCCC4)OC3=O)nc2n1` (centres unmarked) [B(105), 6-Cyclopentyl-3-(5,7-dimethyl-[1,2,4]triazolo[1,5-a]pyrimidin-2-ylmethyl)-6-[2-(3-fluoro-4-hydroxy-phenyl)-ethyl]-4-hydroxy-5,6-dihydro-pyran-2-one] gave an IC50 of 46 nM.
`COc1ccc(CCC2(C3CCCC3)CC(O)=C(Cc3nc4nc(C)cc(C)n4n3)C(=O)O2)cc1C1CC1` (centres unmarked) [B(107), 6-Cyclopentyl-6-[2-(3-cyclopropyl-4-methoxy-phenyl)-ethyl]-3-(5,7-dimethyl-[1,2,4]triazolo[1,5-a]pyrimidin-2-ylmethyl)-4-hydroxy-5,6-dihydro-pyran-2-one] gave an IC50 of 6 nM.
`CCc1cc(CCC2(C3CCCC3)CC(O)=C(Cc3nc[nH]c3C)C(=O)O2)ccc1O` (centres unmarked) [B(110), 6-Cyclopentyl-6-[2-(3-ethyl-4-hydroxy-phenyl)-ethyl]-4-hydroxy-3-(5-methyl-1H-imidazol-4-ylmethyl)-5,6-dihydro-pyran-2-one] showed an IC50 of 107 nM.
Compound `CCc1nc(CC2=C(O)CC(CCc3ccc(O)c(CC)c3)(C3CCCC3)OC2=O)c(C)[nH]1` (centres unmarked) [B(111), 6-Cyclopentyl-6-[2-(3-ethyl-4-hydroxy-phenyl)-ethyl]-3-(2-ethyl-5-methyl-1H-imidazol-4-ylmethyl)-4-hydroxy-5,6-dihydro-pyran-2-one] has an IC50 of 321 nM.
Work on `Cc1cc(C)n2nc(CC3=C(O)CC(CCc4ccc([C@@H](C)O)cc4)(C4CCCC4)OC3=O)nc2n1` (some centres unmarked) [B(112), 6-Cyclopentyl-3-(5,7-dimethyl-[1,2,4]triazolo[1,5-a]pyrimidin-2-ylmethyl)-4-hydroxy-6-{2-[4-(1-hydroxy-ethyl)-phenyl]-ethyl}-5,6-dihydro-pyran-2-one] yielded an IC50 of 97 nM.
Compound `CCc1cc(CCC2(C3CCCC3)CC(O)=C(Cc3nc4nc(C)cc(C)n4n3)C(=O)O2)ccc1Cl` (centres unmarked) [B(113), 6-[2-(4-Chloro-3-ethyl-phenyl)-ethyl]-6-cyclopentyl-3-(5,7-dimethyl-[1,2,4]triazolo[1,5-a]pyrimidin-2-ylmethyl)-4-hydroxy-5,6-dihydro-pyran-2-one] has an IC50 of 19 nM.
`C[C@@H](O)c1ccc(CCC2(C3CCCC3)CC(=O)CC(=O)O2)cc1F` (some centres unmarked) [B(115), 6-Cyclopentyl-6-{2-[3-fluoro-4-(1-hydroxy-ethyl)-phenyl]-ethyl}-dihydro-pyran-2,4-dione] showed an IC50 of 3300 nM.
Work on `COc1ccc(CCC2(C3CCCC3)CC(O)=C(Cc3nc4nc(C)cc(C)n4n3)C(=O)O2)c(OC)c1` (centres unmarked) [B(117), 6-Cyclopentyl-6-[2-(2,4-dimethoxy-phenyl)-ethyl]-3-(5,7-dimethyl-[1,2,4]triazolo[1,5-a]pyrimidin-2-ylmethyl)-4-hydroxy-5,6-dihydro-pyran-2-one] yielded an IC50 of 111 nM.
In the case of `COc1ccc(CCC2(C3CCCC3)CC(O)=C(Cc3nc4ncc(C)cn4n3)C(=O)O2)c(OC)c1` (centres unmarked) [B(118), 6-Cyclopentyl-6-[2-(2,4-dimethoxy-phenyl)-ethyl]-4-hydroxy-3-(6-methyl-[1,2,4]triazolo[1,5-a]pyrimidin-2-ylmethyl)-5,6-dihydro-pyran-2-one], the IC50 is reported as 200 nM.
With `COc1ccc(CCC2(C3CCCC3)CC(O)=C(Cc3nc4ncc(Cl)cn4n3)C(=O)O2)c(OC)c1` (centres unmarked) [B(119), 3-(6-Chloro-[1,2,4]triazolo[1,5-a]pyrimidin-2-ylmethyl)-6-cyclopentyl-6-[2-(2,4-dimethoxy-phenyl)-ethyl]-4-hydroxy-5,6-dihydro-pyran-2-one] the IC50 was 70 nM.
`COc1ccc(CCC2(C3CCCC3)CC(=O)CC(=O)O2)cc1[C@@H](C)O` (some centres unmarked) [B(121), 6-Cyclopentyl-6-{2-[3-(1-hydroxy-ethyl)-4-methoxy-phenyl]-ethyl}-dihydro-pyran-2,4-dione] showed an IC50 of 6000 nM.
In the case of `Cc1cc(C)n2nc(CC3=C(O)CC(CCc4ccc(C5(C)OCCO5)c(Cl)c4)(C4CCCC4)OC3=O)nc2n1` (centres unmarked) [B(122), 6-{2-[3-Chloro-4-(2-methyl-[1,3]dioxolan-2-yl)-phenyl]-ethyl}-6-cyclopentyl-3-(5,7-dimethyl-[1,2,4]triazolo[1,5-a]pyrimidin-2-ylmethyl)-4-hydroxy-5,6-dihydro-pyran-2-one], the IC50 is reported as 7 nM.
In the case of `CC1(c2ccc(CCC3(C4CCCC4)CC(=O)CC(=O)O3)cc2Cl)OCCO1` (centres unmarked) [B(123), 6-{2-[3-Chloro-4-(2-methyl-[1,3]dioxolan-2-yl)-phenyl]-ethyl}-6-cyclopentyl-dihydro-pyran-2,4-dione], the IC50 is reported as 580 nM.
With `CC(=O)c1ccc(CCC2(C3CCCC3)CC(O)=C(Cc3nc4nc(C)cc(C)n4n3)C(=O)O2)cc1Cl` (centres unmarked) [B(124), 6-[2-(4-Acetyl-3-chloro-phenyl)-ethyl]-6-cyclopentyl-3-(5,7-dimethyl-[1,2,4]triazolo[1,5-a]pyrimidin-2-ylmethyl)-4-hydroxy-5,6-dihydro-pyran-2-one] the IC50 was 90 nM.
For `Cc1cnc2nc(CC3=C(O)CC(CCc4ccc(C5(C#N)CC5)c(Cl)c4)(C4CCCC4)OC3=O)nn2c1` (centres unmarked) [B(125), 1-(2-Chloro-4-{2-[2-cyclopentyl-4-hydroxy-5-(6-methyl-[1,2,4]triazolo[1,5-a]pyrimidin-2-ylmethyl)-6-oxo-3,6-dihydro-2H-pyran-2-yl]-ethyl}-phenyl)-cyclopropanecarbonitrile], the IC50 was 4 nM.
For `N#CC1(c2ccc(CCC3(C4CCCC4)CC(O)=C(Cc4nc5ncc(Cl)cn5n4)C(=O)O3)cc2Cl)CC1` (centres unmarked) [B(126), 1-(2-Chloro-4-{2-[5-(6-chloro-[1,2,4]triazolo[1,5-a]pyrimidin-2-ylmethyl)-2-cyclopentyl-4-hydroxy-6-oxo-3,6-dihydro-2H-pyran-2-yl]-ethyl}-phenyl)-cyclopropanecarbonitrile], the IC50 was 23 nM.
In the case of `CC(C)Oc1ccc(CCC2(C3CCCC3)CC(O)=C(Sc3cccc4cccnc34)C(=O)O2)cc1F` (centres unmarked) [C(01), 6-Cyclopentyl-6-[2-(3-fluoro-4-isopropoxy-phenyl)-ethyl]-4-hydroxy-3-(quinolin-8-ylsulfanyl)-5,6-dihydro-pyran-2-one], the IC50 is reported as 337 nM.
`CC(C)Oc1ccc(CCC2(C3CCCC3)CC(O)=C(Sc3nc4cc(Cl)ccc4n3C(C)C)C(=O)O2)cc1F` (centres unmarked) [C(02)] showed an IC50 of 14 nM.
`COc1ccc(CCC2(C3CCCC3)CC(O)=C(Sc3cccc4cccnc34)C(=O)O2)cc1Cl` (centres unmarked) [C(03), 6-[2-(3-Chloro-4-methoxy-phenyl)-ethyl]-6-cyclopentyl-4-hydroxy-3-(quinolin-8-ylsulfanyl)-5,6-dihydro-pyran-2-one] gave an IC50 of 500 nM.
`O=C1OC(CCC2=CCCCC2)(C2CCCC2)CC(O)=C1Sc1nnc(-c2ccncc2)[nH]1` (centres unmarked) [C(04), 6-(2-Cyclohex-1-enyl-ethyl)-6-cyclopentyl-4-hydroxy-3-(5-pyridin-4-yl-4H-[1,2,4]triazol-3-ylsulfanyl)-5,6-dihydro-pyran-2-one] was tested, and the IC50 was 1800 nM.
`COc1ccc(CCC2(C3CCCC3)CC(O)=C(Sc3nnc(O)n3C(C)C)C(=O)O2)cc1Cl` (centres unmarked) [C(06), 6-[2-(3-Chloro-4-methoxy-phenyl)-ethyl]-6-cyclopentyl-4-hydroxy-3-(5-hydroxy-4-isopropyl-4H-[1,2,4]triazol-3-ylsulfanyl)-5,6-dihydro-pyran-2-one] gave an IC50 of 250 nM.
`Cc1cc(C)n2nc(SC3=C(O)CC(CCc4ccc(OC(C)C)c(F)c4)(C4CCCC4)OC3=O)nc2n1` (centres unmarked) [C(07), 6-Cyclopentyl-3-(5,7-dimethyl-[1,2,4]triazolo[1,5-a]pyrimidin-2-ylsulfanyl)-6-[2-(3-fluoro-4-isopropoxy-phenyl)-ethyl]-4-hydroxy-5,6-dihydro-pyran-2-one] gave an IC50 of 19 nM.
